Test results taken from US20080255498A1, “Sensitizer Solutions, Systems, and Methods of Use” (priority 2005, published 2008).

Test: Spectral absorption of light of sensitizer solutions (FIG. 2A, 2B)
Assay type: physicochemical
Source text: FIG. 2A is a graphic representation of spectral absorption of light for two embodiments of the sensitizer solution plotting absorbance versus wavelength in nm.
FIG. 2B is a graphic representation of the spectral absorption of light for four embodiments of the sensitizer solution plotting absorbance versus wavelength in nm.
FIGS. 2A and 2B illustrate that the sensitizer solution 12 has an electromagnetic energy absorption level dependent on the frequency (i.e., wavelength) of the electromagnetic energy. […] See U.S. Pat. No. 6,561,808 by Neuberger.

Row | Compound | absorption spectrum primary peak | absorption spectrum secondary peak | absorption spectrum tertiary peak
1 | silicon naphthalocyanine | about 773 nm | about 690 nm | about 735 nm
2 | bacteriochlorin a | about 765 nm | about 605 nm | –
3 | C=Cc1c(C)c2cc3nc(c(CC(=O)O)c4[nH]c(cc5nc(cc1[nH]2)C(C)=C5CC)c(C)c4C(=O)O)[C@@H](CCC(=O)O)[C@@H]3C [chlorin e6] | about 665 nm | about 575 nm | about 515 nm
